Laboratory results taken from PubChem BioAssay AID2060894 (Molecular Pharmacology Branch, DTP, NCI, 2025).

System: K12877-001-R-J1-PDC complex spheroid viability
Test: Anticancer human tumor K12877-001-R-J1-PDC patient-derived lung adenocarcinoma cell line growth inhibition [RAS]
Conditions: for IC50: curve of first compound; for viability, T/C: stronger effect = lower value
How it was run: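 Agents were tested in combination matrices in half-log decrements from a top concentration at or near clinical Cmax (10 microM if undetermined). Targets were multi-cell spheroids of tumour lines plus HUVEC and MSC stromal cells.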

[1] = second compound 0.000949 µM, first compound 0.0316 µM
[2] = second compound 0.000949 µM, first compound 0.1 µM
[3] = second compound 0.000949 µM, first compound 0.316 µM
[4] = second compound 0.000949 µM, first compound 1 µM
[5] = second compound 0.003 µM, first compound 0.0316 µM
[6] = second compound 0.003 µM, first compound 0.1 µM
[7] = second compound 0.003 µM, first compound 0.316 µM
[8] = second compound 0.003 µM, first compound 1 µM
[9] = second compound 0.00949 µM, first compound 0.0316 µM
[10] = second compound 0.00949 µM, first compound 0.1 µM
[11] = second compound 0.00949 µM, first compound 0.316 µM
[12] = second compound 0.00949 µM, first compound 1 µM
[13] = second compound 0.03 µM, first compound 0.0316 µM
[14] = second compound 0.03 µM, first compound 0.1 µM
[15] = second compound 0.03 µM, first compound 0.316 µM
[16] = second compound 0.03 µM, first compound 1 µM
[17] = second compound 0.0949 µM, first compound 0.0316 µM
[18] = second compound 0.0949 µM, first compound 0.1 µM
[19] = second compound 0.0949 µM, first compound 0.316 µM
[20] = second compound 0.0949 µM, first compound 1 µM
[21] = second compound 0.3 µM, first compound 0.0316 µM
[22] = second compound 0.3 µM, first compound 0.1 µM
[23] = second compound 0.3 µM, first compound 0.316 µM
[24] = second compound 0.3 µM, first compound 1 µM
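Further: spheroids exposed to agents for one week before readout.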
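Wherever viability, T/C is given: tumour cells co-cultured with HUVEC and mesenchymal stem cells in spheroids.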

`CC(=O)OC12COC1CC(O)C1(C)C(=O)C(O)C3=C(C)C(OC(=O)C(O)C(NC(=O)OC(C)(C)C)c4ccccc4)CC(O)(C(OC(=O)c4ccccc4)C21)C3(C)C` (stereo unspecified) + CCn1c(-c2cccnc2C(C)OC)c2c3cc(ccc31)N1CCOC(CC(NC(=O)C(C(C)C)N(C)C(=O)C3(F)CCN(C(=O)C#CC(C)(C)N(C)C)CC3)C(=O)N3CCCC(N3)C(=O)OCC(C)(C)C2)C1 gave an IC50 (second compound 0.000949 µM) of under 31.6 nM, an IC50 (second compound 0.003 µM) of under 31.6 nM and an IC50 (second compound 0.00949 µM) of under 31.6 nM. It also gave an IC50 (second compound 0.03 µM) of under 31.6 nM, an IC50 (second compound 0.0949 µM) of under 31.6 nM and an IC50 (second compound 0.3 µM) of under 31.6 nM. For the same compound, the viability, T/C [1] was 4.23%, the viability, T/C [2] was 2.96% and the viability, T/C [3] was 3.64%. The viability, T/C [4] was 3.51%, the viability, T/C (second compound 0.000949 µM, first compound 3.16 µM) was 3.12% and the viability, T/C (second compound 0.000949 µM, first compound 10 µM) was 6.19%. For the same compound, the viability, T/C [5] was 4.57%, the viability, T/C [6] was 3.08% and the viability, T/C [7] was 3.09%. It also gave a viability, T/C [8] of 2.71%, a viability, T/C (second compound 0.003 µM, first compound 3.16 µM) of 3.37% and a viability, T/C (second compound 0.003 µM, first compound 10 µM) of 6.21%. The viability, T/C [9] was 3.31%, the viability, T/C [10] was 2.69% and the viability, T/C [11] was 2.28%. It also gave a viability, T/C [12] of 2.12%, a viability, T/C (second compound 0.00949 µM, first compound 3.16 µM) of 2.87% and a viability, T/C (second compound 0.00949 µM, first compound 10 µM) of 5.23%. It also gave a viability, T/C [13] of 3.32%, a viability, T/C [14] of 2.79% and a viability, T/C [15] of 2.34%. The viability, T/C [16] was 2.42%, the viability, T/C (second compound 0.03 µM, first compound 3.16 µM) was 2.51% and the viability, T/C (second compound 0.03 µM, first compound 10 µM) was 5.78%. It also gave a viability, T/C [17] of 2.88%, a viability, T/C [18] of 2.42% and a viability, T/C [19] of 2.13%. It also gave a viability, T/C [20] of 2.21%, a viability, T/C (second compound 0.0949 µM, first compound 3.16 µM) of 2.11% and a viability, T/C (second compound 0.0949 µM, first compound 10 µM) of 4.05%. It also gave a viability, T/C [21] of 3.02%, a viability, T/C [22] of 2.23% and a viability, T/C [23] of 2.13%. The viability, T/C [24] was 1.55%, the viability, T/C (second compound 0.3 µM, first compound 3.16 µM) was 1.93% and the viability, T/C (second compound 0.3 µM, first compound 10 µM) was 3.39%.
`CCc1c2c(nc3ccc(O)cc13)-c1cc3c(c(=O)n1C2)COC(=O)[C@]3(O)CC` + CCn1c(-c2cccnc2C(C)OC)c2c3cc(ccc31)N1CCOC(CC(NC(=O)C(C(C)C)N(C)C(=O)C3(F)CCN(C(=O)C#CC(C)(C)N(C)C)CC3)C(=O)N3CCCC(N3)C(=O)OCC(C)(C)C2)C1 showed an IC50 (second compound 0.000949 µM) of 4.24 nM, an IC50 (second compound 0.003 µM) of 3.18 nM and an IC50 (second compound 0.00949 µM) of 2.99 nM. The IC50 (second compound 0.03 µM) was 2.98 nM, the IC50 (second compound 0.0949 µM) was 2.7 nM and the IC50 (second compound 0.3 µM) was 1.63 nM. For the same compound, the viability, T/C (second compound 0.000949 µM, first compound 0.000949 µM) was 89.5%, the viability, T/C (second compound 0.000949 µM, first compound 0.003 µM) was 68.3% and the viability, T/C (second compound 0.000949 µM, first compound 0.00949 µM) was 7.36%. For the same compound, the viability, T/C (second compound 0.000949 µM, first compound 0.03 µM) was 4.07%, the viability, T/C (second compound 0.000949 µM, first compound 0.0949 µM) was 2.52% and the viability, T/C (second compound 0.000949 µM, first compound 0.3 µM) was 1.41%. For the same compound, the viability, T/C (second compound 0.003 µM, first compound 0.000949 µM) was 62.1%, the viability, T/C (second compound 0.003 µM, first compound 0.003 µM) was 52.2% and the viability, T/C (second compound 0.003 µM, first compound 0.00949 µM) was 8.47%. For the same compound, the viability, T/C (second compound 0.003 µM, first compound 0.03 µM) was 3.87%, the viability, T/C (second compound 0.003 µM, first compound 0.0949 µM) was 2.21% and the viability, T/C (second compound 0.003 µM, first compound 0.3 µM) was 1.33%. It also gave a viability, T/C (second compound 0.00949 µM, first compound 0.000949 µM) of 78.3%, a viability, T/C (second compound 0.00949 µM, first compound 0.003 µM) of 49.9% and a viability, T/C (second compound 0.00949 µM, first compound 0.00949 µM) of 7.64%. It also gave a viability, T/C (second compound 0.00949 µM, first compound 0.03 µM) of 4.13%, a viability, T/C (second compound 0.00949 µM, first compound 0.0949 µM) of 2.66% and a viability, T/C (second compound 0.00949 µM, first compound 0.3 µM) of 1.35%. The viability, T/C (second compound 0.03 µM, first compound 0.000949 µM) was 78.1%, the viability, T/C (second compound 0.03 µM, first compound 0.003 µM) was 49.9% and the viability, T/C (second compound 0.03 µM, first compound 0.00949 µM) was 7.8%. The viability, T/C (second compound 0.03 µM, first compound 0.03 µM) was 3.09%, the viability, T/C (second compound 0.03 µM, first compound 0.0949 µM) was 2.15% and the viability, T/C (second compound 0.03 µM, first compound 0.3 µM) was 1.08%. For the same compound, the viability, T/C (second compound 0.0949 µM, first compound 0.000949 µM) was 75.5%, the viability, T/C (second compound 0.0949 µM, first compound 0.003 µM) was 47.4% and the viability, T/C (second compound 0.0949 µM, first compound 0.00949 µM) was 6.39%. For the same compound, the viability, T/C (second compound 0.0949 µM, first compound 0.03 µM) was 4.02%, the viability, T/C (second compound 0.0949 µM, first compound 0.0949 µM) was 2.14% and the viability, T/C (second compound 0.0949 µM, first compound 0.3 µM) was 1.27%. For the same compound, the viability, T/C (second compound 0.3 µM, first compound 0.000949 µM) was 62.8%, the viability, T/C (second compound 0.3 µM, first compound 0.003 µM) was 35.8% and the viability, T/C (second compound 0.3 µM, first compound 0.00949 µM) was 5.11%. The viability, T/C (second compound 0.3 µM, first compound 0.03 µM) was 3.66%, the viability, T/C (second compound 0.3 µM, first compound 0.0949 µM) was 1.47% and the viability, T/C (second compound 0.3 µM, first compound 0.3 µM) was 1.32%.
In the case of `Nc1ccn(C2OC(CO)C(O)C2(F)F)c(=O)n1` (stereo unspecified) + CCn1c(-c2cccnc2C(C)OC)c2c3cc(ccc31)N1CCOC(CC(NC(=O)C(C(C)C)N(C)C(=O)C3(F)CCN(C(=O)C#CC(C)(C)N(C)C)CC3)C(=O)N3CCCC(N3)C(=O)OCC(C)(C)C2)C1, the IC50 (second compound 0.000949 µM) is reported as 14.5 nM, the IC50 (second compound 0.003 µM) is reported as 13.2 nM and the IC50 (second compound 0.00949 µM) is reported as 12.7 nM. The IC50 (second compound 0.03 µM) was 12.4 nM, the IC50 (second compound 0.0949 µM) was 10.5 nM and the IC50 (second compound 0.3 µM) was 5.89 nM. It also gave a viability, T/C (second compound 0.000949 µM, first compound 0.00316 µM) of 83.5%, a viability, T/C (second compound 0.000949 µM, first compound 0.01 µM) of 71.9% and a viability, T/C [1] of 4.44%. For the same compound, the viability, T/C [2] was 3.87%, the viability, T/C [3] was 3.37% and the viability, T/C [4] was 4.46%. For the same compound, the viability, T/C (second compound 0.003 µM, first compound 0.00316 µM) was 82.3%, the viability, T/C (second compound 0.003 µM, first compound 0.01 µM) was 64.6% and the viability, T/C [5] was 4.22%. The viability, T/C [6] was 3.94%, the viability, T/C [7] was 5.22% and the viability, T/C [8] was 3.83%. It also gave a viability, T/C (second compound 0.00949 µM, first compound 0.00316 µM) of 79.7%, a viability, T/C (second compound 0.00949 µM, first compound 0.01 µM) of 61.6% and a viability, T/C [9] of 5.4%. For the same compound, the viability, T/C [10] was 4.58%, the viability, T/C [11] was 3.59% and the viability, T/C [12] was 3.51%. For the same compound, the viability, T/C (second compound 0.03 µM, first compound 0.00316 µM) was 82.2%, the viability, T/C (second compound 0.03 µM, first compound 0.01 µM) was 60.4% and the viability, T/C [13] was 3.17%. The viability, T/C [14] was 4.94%, the viability, T/C [15] was 4.16% and the viability, T/C [16] was 3.02%. It also gave a viability, T/C (second compound 0.0949 µM, first compound 0.00316 µM) of 77.2%, a viability, T/C (second compound 0.0949 µM, first compound 0.01 µM) of 52% and a viability, T/C [17] of 5.2%. For the same compound, the viability, T/C [18] was 3.34%, the viability, T/C [19] was 2.8% and the viability, T/C [20] was 3.38%. For the same compound, the viability, T/C (second compound 0.3 µM, first compound 0.00316 µM) was 71.6%, the viability, T/C (second compound 0.3 µM, first compound 0.01 µM) was 31.5% and the viability, T/C [21] was 3.46%. The viability, T/C [22] was 2.66%, the viability, T/C [23] was 3.3% and the viability, T/C [24] was 3.43%.
